Like-named read-outs stand apart in the source and are kept apart here.
Tests used:
[1] = system: P-gp, MRP1 and BCRP transporters; assay: Selectivity for ABC transporters, determined from % of reversion (Tables 1 and 2); assay type: cell-based, human; conditions: determined from % of reversion in Table 1 (>80% strongly, 79-50% moderately selective)
Source text: Generally, the triazole dimers library can be divided into mono-selective, dual-selective and multi-selective ABC transporter modulators. Table 2 summarizes the selectivity of different active triazole dimers and some monomeric azides for the ABC transporters. […] From the study, it seems that the simple monomeric azides could be a highly BCRP-selective inhibitor. […] It is possible that differently selective (mono-, dual- and multi-) inhibitors of drug transporters could be potentially useful tools for investigation of complicated drug-resistance phenotypes and eventually, for treatment of drug-resistant cancers caused by overexpression of ABC transporters.
The selectivity of active triazole compounds for various ABC transporters was determined from the Table 1. It would be considered as strongly selective if it causes >80% of reversion. It would be considered as moderately selective if it results in 79-50% of reversion. Overall, the active triazole compounds can be divided into mono-, dual- and multi-selective for P-gp, MRP1 and BCRP transporters.

in vitro = conditions: mouse
MRP1 [2] = molecular target: T1, MRP1 (Homo sapiens, UniProt P33527); assay: Reversal of MRP1-mediated DOX resistance in 2008/MRP1 cells (cell proliferation assay); conditions: for DOX resistance of 2008/MRP1 Therapeutic index: (IC50 towards L929 or Raw264.7)/(EC50 for reversing drug resistance)
T1 sequence (P33527 whole entry): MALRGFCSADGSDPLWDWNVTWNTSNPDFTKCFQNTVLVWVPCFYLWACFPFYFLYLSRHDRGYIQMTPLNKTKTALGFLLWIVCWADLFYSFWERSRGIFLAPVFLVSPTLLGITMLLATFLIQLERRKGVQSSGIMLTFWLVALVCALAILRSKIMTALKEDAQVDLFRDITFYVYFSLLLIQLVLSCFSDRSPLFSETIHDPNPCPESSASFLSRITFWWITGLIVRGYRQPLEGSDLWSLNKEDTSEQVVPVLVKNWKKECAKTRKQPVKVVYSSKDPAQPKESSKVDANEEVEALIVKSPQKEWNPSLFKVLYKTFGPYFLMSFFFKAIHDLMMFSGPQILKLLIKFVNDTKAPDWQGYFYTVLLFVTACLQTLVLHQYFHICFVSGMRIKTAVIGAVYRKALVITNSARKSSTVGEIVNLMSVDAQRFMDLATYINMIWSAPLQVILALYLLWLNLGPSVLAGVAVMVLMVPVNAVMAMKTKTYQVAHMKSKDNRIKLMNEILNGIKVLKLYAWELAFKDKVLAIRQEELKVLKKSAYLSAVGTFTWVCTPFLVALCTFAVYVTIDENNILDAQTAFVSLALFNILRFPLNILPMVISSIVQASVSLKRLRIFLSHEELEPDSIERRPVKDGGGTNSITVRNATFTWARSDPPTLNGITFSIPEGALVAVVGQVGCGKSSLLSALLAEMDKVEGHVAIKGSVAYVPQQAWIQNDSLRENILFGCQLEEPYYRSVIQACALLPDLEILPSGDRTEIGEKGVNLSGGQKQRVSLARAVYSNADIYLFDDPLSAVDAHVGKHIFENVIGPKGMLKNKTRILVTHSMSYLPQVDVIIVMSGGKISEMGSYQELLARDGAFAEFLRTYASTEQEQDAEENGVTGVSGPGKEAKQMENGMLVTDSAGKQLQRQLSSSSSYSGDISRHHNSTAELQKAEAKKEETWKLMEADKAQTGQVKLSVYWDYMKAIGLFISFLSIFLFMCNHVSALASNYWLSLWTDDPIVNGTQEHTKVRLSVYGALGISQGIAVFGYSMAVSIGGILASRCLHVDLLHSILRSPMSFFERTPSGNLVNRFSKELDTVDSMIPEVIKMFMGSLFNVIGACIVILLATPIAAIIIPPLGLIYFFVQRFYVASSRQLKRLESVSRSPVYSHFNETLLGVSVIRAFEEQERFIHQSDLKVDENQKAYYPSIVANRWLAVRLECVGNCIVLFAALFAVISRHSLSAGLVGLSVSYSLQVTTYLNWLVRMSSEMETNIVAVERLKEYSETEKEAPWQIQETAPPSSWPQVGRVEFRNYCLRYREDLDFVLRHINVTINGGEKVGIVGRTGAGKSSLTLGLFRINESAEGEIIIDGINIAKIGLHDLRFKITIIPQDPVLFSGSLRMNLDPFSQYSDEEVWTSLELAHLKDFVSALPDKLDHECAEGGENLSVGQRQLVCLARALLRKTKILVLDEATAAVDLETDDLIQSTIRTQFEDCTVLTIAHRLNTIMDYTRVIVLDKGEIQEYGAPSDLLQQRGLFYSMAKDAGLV

MRP1 [3] = molecular target: T1, MRP1; assay: Reversal of MRP1-mediated vincristine resistance in 2008/MRP1 cells (cell proliferation assay); conditions: (IC50 towards L929 or Raw264.7)/(EC50 for reversing drug resistance)
MRP1 [4] = molecular target: T1, MRP1; assay: cell-based
MRP1 [5] = molecular target: T1, MRP1; assay: cell-based; remark: listed apart in the source
BCRP [6] = molecular target: T2, BCRP (Homo sapiens, UniProt Q9UNQ0); assay: cell-based
T2 sequence (Q9UNQ0 1-655): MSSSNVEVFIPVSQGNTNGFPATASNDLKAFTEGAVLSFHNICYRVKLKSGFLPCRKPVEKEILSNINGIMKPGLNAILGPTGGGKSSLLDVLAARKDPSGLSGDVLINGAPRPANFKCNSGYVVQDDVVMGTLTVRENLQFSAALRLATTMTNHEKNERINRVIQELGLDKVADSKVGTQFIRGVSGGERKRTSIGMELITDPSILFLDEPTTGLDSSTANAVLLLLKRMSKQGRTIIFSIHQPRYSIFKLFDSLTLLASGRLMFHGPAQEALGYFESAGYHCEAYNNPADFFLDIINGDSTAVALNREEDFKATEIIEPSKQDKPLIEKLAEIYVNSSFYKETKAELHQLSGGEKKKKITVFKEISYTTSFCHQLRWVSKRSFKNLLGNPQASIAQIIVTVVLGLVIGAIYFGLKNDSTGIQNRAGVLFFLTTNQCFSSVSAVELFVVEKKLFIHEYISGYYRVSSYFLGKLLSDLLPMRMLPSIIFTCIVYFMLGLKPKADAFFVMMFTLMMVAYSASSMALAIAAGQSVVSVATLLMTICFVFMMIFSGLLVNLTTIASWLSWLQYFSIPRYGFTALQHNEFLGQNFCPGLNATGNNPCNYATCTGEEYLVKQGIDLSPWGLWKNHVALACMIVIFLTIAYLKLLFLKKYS

BCRP [7] = molecular target: T2, BCRP; assay: Reversal of BCRP-mediated topotecan resistance in MCF7-MX100 cells (cell proliferation assay); conditions: for Topotecan resistance of MCF7-MX100 Therapeutic index: (IC50 towards L929 or Raw264.7)/(EC50 for reversing drug resistance); for % of reversion of sensitivity of MCF7-MX100 towards topotecan: triazole dimers at 1.0 μM

| Structure (SMILES) | Selectivity for ABC transporters (P-gp, MRP1, BCRP) [1] | IC50 at 5 days (in vitro) [nM] | EC50 (MRP1 [4]) [nM] | EC50 (BCRP [6]) [nM] | % of reversion of sensitivity of 2008/MRP1 towards DOX (MRP1 [2]; triazole dimers at 1.0 μM) | DOX resistance of 2008/MRP1 Therapeutic index (MRP1 [2]) | Vincristine resistance of 2008/MRP1 Therapeutic index (MRP1 [3]) | EC50 (MRP1 [5]) [nM] | Topotecan resistance of MCF7-MX100 Therapeutic index (BCRP [7]) | % of reversion of sensitivity of MCF7-MX100 towards topotecan (BCRP [7]) |
| --- | --- | --- | --- | --- | --- | --- | --- | --- | --- | --- |
| O=c1cc(-c2ccc(OCCOCCOCCn3cc(CCCCOc4ccc5c(=O)cc(-c6ccccc6)oc5c4)nn3)cc2)oc2ccccc12 [Ac12Az2, 7-(4-(1-(2-(2-(2-(4-(4-Oxo-4H-chromen-2-yl)phenoxy)ethoxy)ethoxy)ethyl)-1H-1,2,3-triazol-4-yl)butoxy)-2-phenyl-4H-chromen-4-one] | MRP1- and BCRP-dual selectivity | > 50000 | – | – | – | >298.5 | >377.9 | – | – | – |
| Cc1ccc2oc(-c3ccc(OCCCCc4cn(CCOCCOc5ccc(-c6cc(=O)c7ccccc7o6)cc5)nn4)cc3)cc(=O)c2c1 [Ac5Az1, 6-Methyl-2-(4-(4-(1-(2-(2-(4-(4-oxo-4H-chromen-2-yl)phenoxy)ethoxy)ethyl)-1H-1,2,3-triazol-4-yl)butoxy)phenyl)-4H-chromen-4-one] | – | > 57000 | 250 | – | – | – | – | – | – | – |
| O=c1cc(-c2ccccc2)oc2cc(OCCN(Cc3ccccc3)Cc3cn(CCOc4ccc5c(=O)cc(-c6ccccc6)oc5c4)nn3)ccc12 [Ac16Az13, 7-(2-(Benzyl((1-(2-((4-oxo-2-phenyl-4H-chromen-7-yl)oxy)ethyl)-1H-1,2,3-triazol-4-yl)methyl)amino)ethoxy)-2-phenyl-4H-chromen-4-one] | – | > 100000 | 590 | – | – | >169.5 | – | – | – | – |
| O=c1cc(-c2ccccc2)oc2cc(OCCN(Cc3ccccc3)Cc3cn(CCOCCOc4ccc(-c5cc(=O)c6cc(F)ccc6o5)cc4)nn3)ccc12 [Ac16Az7, 7-(2-(Benzyl((1-(2-(2-(4-(6-fluoro-4-oxo-4H-chromen-2-yl)phenoxy)ethoxy)ethyl)-1H-1,2,3-triazol-4-yl)methyl)amino)ethoxy)-2-phenyl-4H-chromen-4-one] | – | > 100000 | 123 ± 13 | – | – | – | – | – | – | – |
| COC(=O)c1cccc(COc2c(-c3ccc(OCCOCCn4cc(COCCOc5ccc6c(=O)cc(-c7ccccc7)oc6c5)nn4)cc3)oc3ccccc3c2=O)c1 [Ac13Az8, Methyl 3-(((4-oxo-2-(4-(2-(2-(4-((2-((4-oxo-2-phenyl-4H-chromen-7-yl)oxy)ethoxy)methyl)-1H-1,2,3-triazol-1-yl)ethoxy)ethoxy)phenyl)-4H-chromen-3-yl)oxy)methyl)benzoate] | MRP1- and BCRP-dual selectivity | > 100000 | – | ≤ 10 | about 55.9% | – | – | – | >16666.7 | about 80.0% |
| COC(=O)c1cccc(COc2c(-c3ccc(OCCOCCOCCn4cc(CCCCOc5ccc(-c6cc(=O)c7cc(C)ccc7o6)cc5)nn4)cc3)oc3ccccc3c2=O)c1 [Ac5Az9, Methyl 3-(((2-(4-(2-(2-(2-(4-(4-(4-(6-methyl-4-oxo-4H-chromen-2-yl)phenoxy)butyl)-1H-1,2,3-triazol-1-yl)ethoxy)ethoxy)ethoxy)phenyl)-4-oxo-4H-chromen-3-yl)oxy)methyl)benzoate] | multi-selectivity towards P-gp, MRP1 and BCRP transporters | > 100000 | – | ≤ 10 | – | – | – | – | >111111.1 | about 64.0% |
| O=c1cc(-c2ccc(OCCOCCn3cc(CCCCOc4ccc5c(=O)cc(-c6ccccc6)oc5c4)nn3)cc2)oc2ccccc12 [Ac12Az1, 7-(4-(1-(2-(2-(4-(4-Oxo-4H-chromen-2-yl)phenoxy)ethoxy)ethyl)-1H-1,2,3-triazol-4-yl)butoxy)-2-phenyl-4H-chromen-4-one] | MRP1- and BCRP-dual selectivity | > 100000 | – | – | – | – | >1190.5 | 84 ± 11 | – | – |
| COC(=O)c1cccc(COc2c(-c3ccc(OCCOCCOCCn4cc(COCCOc5ccc6c(=O)cc(-c7ccccc7)oc6c5)nn4)cc3)oc3ccccc3c2=O)c1 [Ac13Az9] | Pgp- and BCRP-dual selectivity | > 100000 | – | ≤ 10 | – | – | – | – | >50000.0 | about 80.0% |

Further lines, with some results ahead:

| Selectivity for ABC transporters (P-gp, MRP1, BCRP) [1] | IC50 at 5 days (in vitro) [nM] | EC50 (MRP1 [4]) [nM] | EC50 (BCRP [6]) [nM] | % of reversion of sensitivity of 2008/MRP1 towards DOX (MRP1 [2]; triazole dimers at 1.0 μM) | Structure (SMILES) | DOX resistance of 2008/MRP1 Therapeutic index (MRP1 [2]) | Vincristine resistance of 2008/MRP1 Therapeutic index (MRP1 [3]) | EC50 (MRP1 [5]) [nM] | Topotecan resistance of MCF7-MX100 Therapeutic index (BCRP [7]) | % of reversion of sensitivity of MCF7-MX100 towards topotecan (BCRP [7]) |
| --- | --- | --- | --- | --- | --- | --- | --- | --- | --- | --- |
| – | 60200 ± 16300 | 128 ± 32.5 | – | – | O=c1cc(-c2ccc(OCCCc3cn(CCOCCOc4ccc(-c5cc(=O)c6ccccc6o5)cc4)nn3)cc2)oc2ccccc12 [Ac1Az1, 2-(4-(3-(1-(2-(2-(4-(4-Oxo-4H-chromen-2-yl)phenoxy)ethoxy)ethyl)-1H-1,2,3-triazol-4-yl)propoxy)phenyl)-4H-chromen-4-one] | – | – | – | – | – |
| MRP1- and BCRP-dual selectivity | > 100000 | – | – | – | O=c1cc(-c2ccccc2)oc2cc(OCCCCc3cn(CCOCCOc4ccc(-c5cc(=O)c6cc(F)ccc6o5)cc4)nn3)ccc12 [Ac12Az7, 6-Fluoro-2-(4-(2-(2-(4-(4-((4-oxo-2-phenyl-4H-chromen-7-yl)oxy)butyl)-1H-1,2,3-triazol-1-yl)ethoxy)ethoxy)phenyl)-4H-chromen-4-one] | >580.4 | >1071.8 | 93.3 ± 20.5 | – | – |
| Pgp- and BCRP-dual selectivity | > 100000 | – | ≤ 10 | – | COC(=O)c1cccc(COc2c(-c3ccc(OCCOCCn4cc(CCCCOc5ccc(-c6cc(=O)c7cc(C)ccc7o6)cc5)nn4)cc3)oc3ccccc3c2=O)c1 [Ac5Az8, Methyl 3-(((2-(4-(2-(2-(4-(4-(4-(6-methyl-4-oxo-4H-chromen-2-yl)phenoxy)butyl)-1H-1,2,3-triazol-1-yl)ethoxy)ethoxy)phenyl)-4-oxo-4H-chromen-3-yl)oxy)methyl)benzoate] | – | – | – | >25000.0 | about 64.0% |
| MRP1- and BCRP-dual selectivity | > 100000 | 110 ± 15 | – | – | COCOc1cc(O)c2c(=O)cc(-c3ccc(OCCCc4cn(CCOCCOc5ccc(-c6cc(=O)c7ccccc7o6)cc5)nn4)cc3)oc2c1 [Ac4(5OH)Az1, 5-Hydroxy-7-(methoxymethoxy)-2-(4-(3-(1-(2-(2-(4-(4-oxo-4H-chromen-2-yl)phenoxy)ethoxy)ethyl)-1H-1,2,3-triazol-4-yl)propoxy)phenyl)-4H-chromen-4-one] | >909.1 | – | – | >1960.8 | – |
| MRP1- and BCRP-dual selectivity | > 100000 | – | – | – | O=c1cc(-c2ccccc2)oc2cc(OCCCCc3cn(CCOCCOCCOc4ccc(-c5cc(=O)c6cc(F)ccc6o5)cc4)nn3)ccc12 [Ac12Az4, 6-Fluoro-2-(4-(2-(2-(2-(4-(4-((4-oxo-2-phenyl-4H-chromen-7-yl)oxy)butyl)-1H-1,2,3-triazol-1-yl)ethoxy)ethoxy)ethoxy)phenyl)-4H-chromen-4-one] | >525.5 | >736.9 | – | – | – |
| – | > 100000 | 145 ± 25 | – | – | O=c1cc(-c2ccc(OCCOCCn3cc(CCCOc4ccc5c(=O)cc(-c6ccccc6)oc5c4)nn3)cc2)oc2ccccc12 [Ac2Az1, 7-(3-(1-(2-(2-(4-(4-Oxo-4H-chromen-2-yl)phenoxy)ethoxy)ethyl)-1H-1,2,3-triazol-4-yl)propoxy)-2-phenyl-4H-chromen-4-one] | – | – | – | – | – |

— patent publication US9611256B2, “Alkyne-, azide- and triazole-containing flavonoids as modulators for multidrug resistance in cancers” (The Hong Kong Polytechnic University, priority 2012, dated 2017)
